Measurements as given in patent US10155027B2, “Alpha-galactosidase A and 1-deoxygalactonojirimycin co-formulation for the treatment of fabry disease” (Amicus Therapeutics, Inc., priority 2012, dated 2018).

T1: α-Gal A (Homo sapiens, UniProt P06280)
T1 construct: purchased JCR Pharmaceuticals Co. Ltd, (Japan) JR-051; host or cells: CHO cells
T1 sequence (P06280 32-429): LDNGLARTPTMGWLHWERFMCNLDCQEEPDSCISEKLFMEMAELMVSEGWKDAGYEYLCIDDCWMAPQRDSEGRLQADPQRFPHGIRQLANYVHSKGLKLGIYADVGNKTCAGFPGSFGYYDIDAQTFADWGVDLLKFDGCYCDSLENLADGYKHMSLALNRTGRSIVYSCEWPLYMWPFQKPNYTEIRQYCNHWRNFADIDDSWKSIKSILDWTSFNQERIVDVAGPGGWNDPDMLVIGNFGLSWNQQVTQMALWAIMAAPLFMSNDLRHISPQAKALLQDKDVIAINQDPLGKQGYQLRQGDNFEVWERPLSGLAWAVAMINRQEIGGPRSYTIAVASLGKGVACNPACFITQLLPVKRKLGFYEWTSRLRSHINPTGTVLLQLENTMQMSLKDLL

B1: Fabrazyme: Agalsidase beta, produced by recombinant DNA technology in a Chinese hamster ovary (CHO) cell line; Genzyme Corporation (protein, UniProt P06280 32-429, looked up)
Alpha-galactosidase A: T1 sequence (P06280 32-429)

Key:
[1] = Tissue uptake of α-Gal A (JR-051) in WT mice following single IV infusion; assay type: in vivo; conditions: data not shown
Protocol: (§1) Table 1 describes the molar ratios of these compounds:
(§2) Plasma was collected at 0, 15, 30, 45, 60, and 90 min, and 24 hrs post-JR-051. Skin, heart, and kidney were collected 24 hrs post-JR-051. JR-051 plasma levels and tissue uptake were assessed by activity and Western blotting (see Methods section below). A comparison was made between JR-051 administered alone and JR-051 co-formulated with AT1001 groups.
A BCA Protein Assay (Pierce, Rockford, Ill.) was used according to the manufacturer's instructions to determine total protein concentration in tissue lysates. […] For tissue Westerns exactly same procedure was followed as described above for plasma except that 50 μg tissue lysate was used.

[2] = Plasma PK of α-Gal A (JR-051) in WT mice following single IV infusion; assay type: in vivo; conditions: JR-051 1 mg/kg single IV infusion
Protocol: as §1, §2
Diluted plasma (1:50) in Lysis Buffer (˜10 μg total protein) was subjected to SDS-PAGE on 4-12% polyacrylamide gels (Invitrogen, Grand Island, N.Y.), transferred to nitrocellulose membranes (Invitrogen), and immunoblotted with rabbit anti-human α-Gal A primary antibody (1:2000 dilution; from Shire Pharmaceuticals, Cambridge, Mass.). Protein bands were detected using peroxidase-conjugated goat anti-rabbit secondary antibody (Jackson Immunosearch Labs, West Grove, Pa.) in combination with enhanced chemiluminescence (Pierce, Rockford, Ill.). Blots were scanned on an Image Station 4000R (Kodak, Rochester, N.Y.).

α-Gal A = biological target: T1, α-Gal A; assay: α-Gal A stability in whole blood ex vivo at 37° C.; assay type: in vitro ADME; conditions: 5 nM and 50 nM α-Gal A formulated without DGJ
Protocol: The effect of co-formulating α-Gal A with DGJ on α-Gal A stability in blood ex vivo was examined. Time-dependent loss of α-Gal A activity in whole blood at 37° C. was determined. 5 nM and 50 nM α-Gal A was formulated with or without 10 μM DGJ.

[3] = tested on: R301Q fibroblast cells derived from Fabry patients; assay: α-Gal A uptake and GL-3 reduction in R301Q Fabry patient fibroblasts; assay type: cell-based, human; conditions: 0.5 nM enzyme co-formulated with 0.1-100 μM DGJ vs alone
Protocol: The effect of co-formulating α-Gal A with DGJ on α-Gal A uptake and GL-3 reduction in R301Q and C52S fibroblast cells derived from Fabry patients was determined. 0.5 nM α-Gal A was tested alone or co-formulated with 0.1, 1.0, 10 or 100 μM DGJ. […] The graph bars represent the average of compiled data from 4 separate experiments.
Further reduction after co-incubation with DGJ is also similar between the two enzymes (˜40-50% of baseline). The graph bars represent the average of compiled data from 4 separate experiments.

GL-3 = GL-3 reduction in skin, heart and kidney of GLA KO mice, repeat IV bolus administration; assay type: in vivo; conditions: DGJ 0 mg/kg, 4 biweekly IV bolus
Protocol: Repeat administration of co-formulated product was tested in fourteen-week old GLA KO mice. The mice received four biweekly (once every two weeks) IV bolus injections of 0.5, 1 or 3 mg/kg α-Gal A (JR-051) alone, or co-formulated with 0.3, 1, 3 or 10 mg/kg of DGJ (AT1001). Plasma and tissue levels of α-Gal A, and tissue levels of GL-3 were measured.
Mouse tissues were homogenized in water (1:16.7 tissue:water) using a Fast Prep homogenizer (Pro Scientific, Thorofare, N.J.). Acetone:methanol (50:50) was added at 5× the volume of the homogenate. Samples were vortexed, re-homogenized in the Fast Prep system, and centrifuged at 10600 g for 10 minutes at room temperature. Each supernatant (200 μL of the upper organic portion) was prepared for solid phase extraction by addition of 200 μL dimethyl sulfoxide (DMSO), 50 μL lactosyl ceramide internal standard (from bovine buttermilk; Matreya, LLC, Pleasant Gap, Pa.) at a final concentration of 1.4 μg/mL, and 600 μL of water:methanol (13:87), followed by vortexing. Solid phase extraction was conducted on a pre-conditioned Bond Elut 40 μm, 100 mg C-18 column (Varian Inc, Palo Alto, Calif.) by washing with 67:23:10 methanol:acetone:water and elution with 1 mL of 9:1 acetone:methanol into silanized glass culture tubes containing 200 μL 0.2 mM sodium acetate in DMSO. Total GL-3 levels were determined from 20 μL of each sample extract by liquid chromatography-tandem mass spectroscopy (LC-MS/MS). LC was conducted using an acetone:methanol:acetonitrile (ACN) with sodium acetate binary mobile phase system (mobile phase A: 40:60 methanol:water with 0.1 mM sodium acetate; mobile phase B: 75:15:10 acetone:methanol:ACN with 0.1 mM sodium acetate) with a flow rate of 0.5 mL/min on a C18 column (Aqua 3 μm 100×3.0 mm, 125 A, Phenomenex, Torrance, Calif.). The final GL-3 elution condition was 90% mobile phase B. MS/MS analysis was carried out under positive ion mode (ESI+) and twelve different isoforms of GL-3 [C16:0, C18:0, C20:0, C22:1, C22:0, C23:0, C22:0(2OH), C24:2, C24:1, C24:0, C24:1(2OH), C24:0(2OH)] as well as internal standard were identified in each sample. The following transitions were monitored: m/z 1046.70→m/z 884.7 for C16:0; m/z 1074.8→m/z 912.8 for C18:0; m/z 1102.8→m/z 940.8 for C20:0; m/z 1128.8→m/z 966.8 for C22:1; m/z 1130.9→m/z 968.8 for C22:0; m/z 1144.9→m/z 982.8 for C23:0; m/z 1146.9→m/z 984.8 for C22:0(2OH); m/z 1154.9→m/z 992.8 for C24:2; m/z 1156.9→m/z 994.8 for C24:1; m/z 1158.9→m/z 996.9 for C24:0; m/z 1172.9→m/z 1010.8 for C24:1(2OH); m/z 1174.9→m/z 1012.8 for C24:0(2OH); and m/z 982.9→m/z 820.8 for the lactosyl ceramide internal standard. For quantitation, the area counts for each isoform were determined and then summed to obtain the total GL-3 area counts. The ratio of the total GL-3 area counts to that of the internal standard was determined and used to calculate the final concentration of GL-3 in each sample based on a linear least squares fit equation applied to an 11-point calibration curve prepared in DMSO. Total GL-3 measurements were normalized to the wet tissue weight of each sample.

| Molecule | effect on α-Gal A uptake in skin [1] | AUC [2] [nmol/mL] | T1/2 [2] [min] | half-life of α-Gal A in whole blood (α-Gal A) [h] | increase of enzyme uptake by DGJ [3] | GL-3% reduction in heart (GL-3; α-Gal A 0.5 mg/kg) [%] | GL-3% reduction in kidney (GL-3; α-Gal A 0.5 mg/kg) [%] | GL-3% reduction in skin (GL-3; α-Gal A 0.5 mg/kg) [%] | GL-3% reduction in heart (GL-3; α-Gal A 1 mg/kg) [%] | GL-3% reduction in kidney (GL-3; α-Gal A 1 mg/kg) [%] | GL-3% reduction in skin (GL-3; α-Gal A 1 mg/kg) [%] | GL-3% reduction in heart (GL-3; α-Gal A 3 mg/kg) [%] | GL-3% reduction in kidney (GL-3; α-Gal A 3 mg/kg) [%] | GL-3% reduction in skin (GL-3; α-Gal A 3 mg/kg) [%] |
| --- | --- | --- | --- | --- | --- | --- | --- | --- | --- | --- | --- | --- | --- | --- |
| JR-051: recombinant human α-Gal A produced in CHO cells transformed with an expression vector encoding the human α-Gal A gene (JCR Pharmaceuticals) | no significant effect | 17960 | 6.6 | 4 to 5 | up to 3 fold | 72.1 | 42.7 | 85.7 | 82.7 | 54.9 | 90.7 | 93.7 | 69.5 | 97.4 |
| B1 |  |  |  |  | up to 4.6 fold |  |  |  |  |  |  |  |  |  |
